These results are taken from patent US10683290B2, “Tricyclic compounds as anticancer agents” (BRISTOL-MYERS SQUIBB COMPANY, priority 2015, dated 2020).

For the test, the target named is BRD4 (Homo sapiens, UniProt O60885). Nature of the test: biochemical. In kind it is binding. As to conditions: read-out: FRET BRD4 IC50.
Setting [1] is: one of the FRET assays described.

Read-outs that look alike come from different tables or passages of the source. A value given as a limit tells only on which side of the number the result lay.

In general, IC50 refers to the concentration at which inhibition is half-maximal. Consider `Cc1noc(C)c1-c1cc2c(cc1F)c1ncc(C(C)(C)O)cc1n2[C@H](c1ccccc1)C1CCOCC1` [Example 18, 2-[7-(dimethyl-1,2-oxazol-4-yl)-8-fluoro-5-[(S)-oxan-4-yl(phenyl)methyl]-5H-pyrido[3,2-b]indol-3-yl]propan-2-ol], for which the IC50 under setting [1] was under 5 nM.
On to `[2H]C([2H])([2H])c1nnn(C)c1-c1cc2c(cc1Cl)c1ncc(C(C)(C)O)cc1n2C(CCC)c1ncccc1F` (single isomer, unassigned) [Example 82, 2-{8-chloro-5-[1-(3-fluoropyridin-2-yl)butyl]-7-[4-(^2H3)methyl-1-methyl-1H-1,2,3-triazol-5-yl]-5H-pyrido[3,2-b]indol-3-yl}propan-2-ol], for which the half-inhibitory concentration (IC50) under setting [1] is under 1500 nM.
In the case of `[2H]C([2H])([2H])c1nnn(C)c1-c1cc2c(cc1F)c1ncc(C(C)(C)O)cc1n2C(CCC)c1ccccn1` (single isomer, unassigned) [Example 48, 2-{8-fluoro-7-[4-(^2H3)methyl-1-methyl-1H-1,2,3-triazol-5-yl]-5-[1-(pyridin-2-yl)butyl]-5H-pyrido[3,2-b]indol-3-yl}propan-2-ol], the IC50 under setting [1] was under 1500 nM.
The same measure, in the same setting: the result for `Cc1nnn(C)c1-c1cc(Cl)c2c3ncc(C(C)(C)O)cc3n(C(CCC(F)(F)F)CCC(F)(F)F)c2c1` [Example 12, 2-[9-Chloro-7-(dimethyl-1H-1,2,3-triazol-5-yl)-5-(1,1,1,7,7,7-hexafluoroheptan-4-yl)-5H-pyrido[3,2-b]indol-3-yl]propan-2-ol] reads under 5 nM; that for `Cc1nnn(C)c1-c1cc2c(cc1F)c1ncc(S(C)(=O)=O)cc1n2[C@H](c1ccccc1F)C1CCOCC1` [Example 25, 5-{8-Fluoro-5-[(S)-(2-fluorophenyl)(oxan-4-yl)methyl]-3-methanesulfonyl-5H-pyrido[3,2-b]indol-7-yl}-1,4-dimethyl-1H-1,2,3-triazole], under 1 nM.
Still for that read-out and setting: next, `[2H]C([2H])([2H])c1nnn(C)c1-c1cc2c(cc1F)c1ncc(C(C)(C)O)cc1n2C(c1ncccc1OC)C1CCOCC1` (single isomer, unassigned) [Example 40, 2-{8-fluoro-5-[(3-methoxypyridin-2-yl)(oxan-4-yl)methyl}-7-[4-(^2H3)methyl-1-methyl-1H-1,2,3-triazol-5-yl]-5H-pyrido[3,2-b]indol-3-yl]propan-2-ol]: under 1500 nM; `[2H]C([2H])([2H])c1nnn(C)c1-c1cc2c(cc1F)c1ncc(C(C)(C)O)cc1n2C(c1cc(F)ccn1)C1CCOCC1` (racemic) [Example 60, 2-{8-fluoro-5-[(4-fluoropyridin-2-yl)(oxan-4-yl)methyl]-7-[4-(^2H3)methyl-1-methyl-1H-1,2,3-triazol-5-yl]-5H-pyrido[3,2-b]indol-3-yl}propan-2-ol]: under 5 nM; `[2H]C([2H])([2H])c1nnn(C)c1-c1ccc2c3ncc(C(C)(C)O)cc3n(C(c3cc(C)on3)C3CCOCC3)c2c1` (single isomer, unassigned) [Example 73, 2-{5-[(5-methyl-1,2-oxazol-3-yl)(oxan-4-yl)methyl]-7-[4-(^2H3)methyl-1-methyl-1H-1,2,3-triazol-5-yl]-5H-pyrido[3,2-b]indol-3-yl}propan-2-ol]: under 5 nM.
As for `[2H]C([2H])([2H])c1nnn(C)c1-c1ccc2c3ncc(C(C)(C)O)cc3n(C(c3ncccc3F)C3CCOCC3)c2c1` (single isomer, unassigned) [Example 72, 2-{5-[(3-Fluoropyridin-2-yl)(oxan-4-yl)methyl]-7-[4-(^2H3)methyl-1-methyl-1H-1,2,3-triazol-5-yl]-5H-pyrido[3,2-b]indol-3-yl}propan-2-ol], under setting [1], the IC50 was under 1 nM.
The same measure, in the same setting: the result for `Cc1nnn(C)c1-c1ccc2c3ncc(C(C)(C)O)cc3n([C@H](c3ccccc3)C3CCOCC3)c2c1F` [Example 20, 2-[7-(Dimethyl-1H-1,2,3-triazol-5-yl)-6-fluoro-5-[(S)-oxan-4-yl(phenyl)methyl]-5H-pyrido[3,2-b]indol-3-yl]propan-2-ol] reads under 5 nM; that for `[2H]C([2H])([2H])c1nnn(C)c1-c1cc2c(cc1F)c1ncc(C(C)(C)O)cc1n2[C@H](c1ccccc1F)C1CCOCC1` [Example 22, 2-{8-Fluoro-5-[(S)-(2-fluorophenyl)(oxan-4-yl)methyl]-7-[4-(^2H3)methyl-1-methyl-1H-1,2,3-triazol-5-yl]-5H-pyrido[3,2-b]indol-3-yl}propan-2-ol], under 1 nM; that for `Cc1nnn(C)c1-c1ccc2c3ncc(C(C)(C)O)cc3n([C@H](c3ccccc3)C3CCOCC3)c2c1` [Example 8, 2-[7-(dimethyl-1H-1,2,3-triazol-5-yl)-5-[(S)-oxan-4-yl(phenyl)methyl]-5H-pyrido[3,2-b]indol-3-yl]propan-2-ol], under 1 nM.
Same read-out and setting: next, `[2H]C([2H])([2H])c1nnn(C)c1-c1cc2c(cc1F)c1ncc(C(C)(C)O)cc1n2C(C1=CCCOC1)c1ccccc1` (racemic) [Example 61, 2-{5-[5,6-dihydro-2H-pyran-3-yl(phenyl)methyl]-8-fluoro-7-[4-(^2H3)methyl-1-methyl-1H-1,2,3-triazol-5-yl]-5H-pyrido[3,2-b]indol-3-yl}propan-2-ol]: under 5 nM; `Cc1noc(C)c1-c1ccc2c3ncc(C(C)(C)O)cc3n([C@H](c3ccccc3)C3CCOCC3)c2c1` [Example 14, 2-[7-(Dimethyl-1,2-oxazol-4-yl)-5-[(S)-oxan-4-yl(phenyl)methyl]-5H-pyrido[3,2-b]indol-3-yl]propan-2-ol]: under 5 nM.
For `CCCC(CCC)n1c2cc(-c3c(C)nnn3C)ccc2c2ncc(C(C)(C)O)cc21` [Example 5, 2-[7-(dimethyl-1H-1,2,3-triazol-5-yl)-5-(heptan-4-yl)-5H-pyrido[3,2-b]indol-3-yl]propan-2-ol], the IC50 under setting [1] is under 5 nM.
As to `[2H]C([2H])([2H])c1nnn(C)c1-c1ccc2c3ncc(C(C)(C)O)cc3n([C@H](c3ccccc3)C3CCOCC3)c2c1` [Example 16, 2-{7-[4-(^2H3)Methyl-1-methyl-1H-1,2,3-triazol-5-yl]-5-[(S)-oxan-4-yl(phenyl)methyl]-5H-pyrido[3,2-b]indol-3-yl}propan-2-ol], the concentration for half-maximal inhibition (IC50) is under 5 nM.
For the molecule `Cc1nnn(C)c1-c1cc(F)c2c3ncc(C(C)(C)O)cc3n([C@H](c3ccccc3)C3CCOCC3)c2c1` [Example 11, 2-[7-(Dimethyl-1H-1,2,3-triazol-5-yl)-9-fluoro-5-[(S)-oxan-4-yl(phenyl)methyl]-5H-pyrido[3,2-b]indol-3-yl]propan-2-ol], the half-inhibitory concentration (IC50) under setting [1] is under 1 nM.
As for `[2H]C([2H])([2H])c1nnn(C)c1-c1cc2c(cc1F)c1ncc(C(C)(C)O)cc1n2C(c1ncccn1)C1CCOCC1` (single isomer, unassigned) [Example 47, 2-{8-fluoro-7-[4-(^2H3)methyl-1-methyl-1H-1,2,3-triazol-5-yl]-5-[oxan-4-yl(pyrimidin-2-yl)methyl]-5H-pyrido[3,2-b]indol-3-yl}propan-2-ol], under setting [1], the half-maximal inhibitory concentration (IC50) is under 5 nM.
For the molecule `Cc1nnn(C)c1-c1cc2c(cc1F)c1ncc(C(C)(O)C3CC3)cc1n2[C@H](c1ccccc1F)C1CCOCC1` (single isomer, unassigned) [Example 23], the IC50 under setting [1] is under 5 nM.
The same measure, in the same setting: the result for `Cc1nnn(C)c1-c1cc2c(cc1F)c1ncc(C(C)(C)O)cc1n2C(c1ccc(F)cn1)C1CCOCC1` (single isomer, unassigned) [Example 69, 2-[7-(dimethyl-1H-1,2,3-triazol-5-yl)-8-fluoro-5-[(5-fluoropyridin-2-yl)(oxan-4-yl)methyl]-5H-pyrido[3,2-b]indol-3-yl]propan-2-ol] reads under 1500 nM.
Consider `[2H]C([2H])([2H])c1nnn(C)c1-c1cc2c(cc1F)c1ncc(C(C)(C)O)cc1n2C(c1cc(OC)ccn1)C1CCOCC1` (single isomer, unassigned) [Example 51, 2-{8-fluoro-5-[(4-methoxypyridin-2-yl)(oxan-4-yl)methyl]-7-[4-(^2H3)methyl-1-methyl-1H-1,2,3-triazol-5-yl]-5H-pyrido[3,2-b]indol-3-yl}propan-2-ol], for which the concentration for half-maximal inhibition (IC50) under setting [1] is under 1500 nM.
As to `[2H]C([2H])([2H])c1nnn(C)c1-c1cc2c(cc1F)c1ncc(C(C)(C)O)cc1n2C(c1ccccc1)C1COC1` (single isomer, unassigned) [Example 67, 2-{8-fluoro-7-[4-(^2H3)methyl-1-methyl-1H-1,2,3-triazol-5-yl]-5-[oxetan-3-yl(phenyl)methyl]-5H-pyrido[3,2-b]indol-3-yl}propan-2-ol], under setting [1], the 50% inhibitory concentration (IC50) is under 5 nM.
With `[2H]C([2H])([2H])c1nnn(C)c1-c1cc2c(cc1F)c1ncc(C(C)(C)O)cc1n2C(CC1COC1)c1ccccc1` (racemic) [Example 66, 2-{8-fluoro-7-[4-(^2H3)methyl-1-methyl-1H-1,2,3-triazol-5-yl]-5-[2-(oxetan-3-yl)-1-phenylethyl]-5H-pyrido[3,2-b]indol-3-yl}propan-2-ol], the half-maximal inhibitory concentration (IC50) under setting [1] is under 1 nM.
Take `Cc1noc(C)c1-c1ccc2c3ncc(C(C)(C)O)cc3n([C@H](c3ccccc3F)C3CCOCC3)c2c1` [Example 15, 2-[7-(Dimethyl-1,2-oxazol-4-yl)-5-[(S)-(2-fluorophenyl)(oxan-4-yl)methyl]-5H-pyrido[3,2-b]indol-3-yl]propan-2-ol]: under setting [1], the half-inhibitory concentration (IC50) was under 5 nM.
`Cc1nnn(C)c1-c1cc2c(cc1F)c1ncc(C(C)(C)O)cc1n2[C@H](c1ccccc1F)C1CCOCC1` [Example 21, 2-[7-(Dimethyl-1H-1,2,3-triazol-5-yl)-8-fluoro-5-[(S)-(2-fluorophenyl)(oxan-4-yl)methyl]-5H-pyrido[3,2-b]indol-3-yl]propan-2-ol]: under setting [1], the IC50 is under 1 nM.
On to `[2H]C([2H])([2H])c1nnn(C)c1-c1cc2c(cc1F)c1ncc(C(C)(C)O)cc1n2C(c1cc(C)ccn1)C1CCOCC1` (single isomer, unassigned) [Example 53, 2-{8-fluoro-7-[4-(^2H3)methyl-1-methyl-1H-1,2,3-triazol-5-yl]-5-[(4-methylpyridin-2-yl)(oxan-4-yl)methyl]-5H-pyrido[3,2-b]indol-3-yl}propan-2-ol], for which the IC50 under setting [1] was under 1500 nM.
With `[2H]C([2H])([2H])c1nnn(C)c1-c1cc2c(cc1Cl)c1ncc(C(C)(C)O)cc1n2C(c1ncccc1F)C1CCOCC1` (single isomer, unassigned) [Example 75, 2-{8-Chloro-5-[(3-fluoropyridin-2-yl)(oxan-4-yl)methyl]-7-[4-(^2H3)methyl-1-methyl-1H-1,2,3-triazol-5-yl]-5H-pyrido[3,2-b]indol-3-yl}propan-2-ol], under setting [1], the 50% inhibitory concentration (IC50) was under 1500 nM.
